Data reported in patent US10238632B2, “Sigma receptor-binding agent” (FUJIFILM Toyama Chemical Co., Ltd., priority 2015, dated 2019).

Experiments:
β2 receptor = molecular target: T1, β2 receptor (Cavia porcellus, UniProt Q8K4Z4); assay: Receptor binding assay, β2; details: guinea-pig lung, compound A at 10 μM, [3H] (−)CGP 12177 (+10 nM CGP 20712A) (0.4 nM), 40 min./22° C., read-out: Inhibition rate of compound A for radioligand (%)
T1 construct: guinea-pig lung; from tissue; host or cells: guinea-pig lung
Protocol: (§1) The compound A was tested for ability to bind to 21 types of receptors. […]
(§2) The inhibition rate of the compound A for each radioligand was calculated by the following equation. 100−([measured specific binding]/[control specific binding]×100) Equation: […]
(§3) In the equation, the measured specific binding indicates the amount of binding radioactivity of each radioligand under the presence of the compound A and the corresponding reference compound, and the control specific binding indicates the amount of binding radioactivity of each radioligand under the presence of the corresponding reference compound.

GABAA receptor = assay: Receptor binding assay, GABAA; details: rat cerebral cortex, compound A at 10 μM, [3H] muscimol (5 nM), 10 min./4° C.
Protocol: as §1, §2, §3

AT2 (h) receptor = molecular target: T2, AT2 (h) receptor (Homo sapiens, UniProt P50052); assay: Receptor binding assay, AT2 (h); details: human recombinant (Hela cells), compound A at 10 μM, [3H] GCP 42112A (0.05 nM), 180 min./37° C., read-out: Inhibition rate of compound A for radioligand (%)
T2 construct: expressed in transfected cells; host or cells: Hela cells
Protocol: as §1, §2, §3

TH receptor = assay: Receptor binding assay, TH; details: rat liver, compound A at 10 μM, [125I] T3 (0.1 nM), 18 h/4° C.
Protocol: as §1, §2, §3

AT1 (h) receptor = molecular target: T3, AT1 (h) receptor (Homo sapiens, UniProt P30556); assay: Receptor binding assay, AT1 (h); details: human recombinant (CHO cells), compound A at 10 μM, [125I] [Sar1, Ile5]-AT II (0.05 nM), 60 min./37° C., read-out: Inhibition rate of compound A for radioligand (%)
T3 construct: expressed in transfected cells; host or cells: CHO cells
Protocol: as §1, §2, §3

M1 receptor = molecular target: T4, M1 receptor (Rattus norvegicus, UniProt P08482); assay: Receptor binding assay, M1; details: rat cerebral cortex, compound A at 10 μM, [3H] pirenzepine (1 nM), 60 min./22° C., read-out: Inhibition rate of compound A for radioligand (%)
T4 construct: rat cerebral cortex; from tissue; host or cells: rat cerebral cortex
Protocol: as §1, §2, §3

[1] = test system: 5-HT (non-selective) receptor; assay: Receptor binding assay, 5-HT (non-selective); details: rat cerebral cortex, compound A at 10 μM, [3H] serotonin (2 nM), 15 min./37° C.
Protocol: as §1, §2, §3

H1 (h) receptor = molecular target: T5, H1 (h) receptor (Homo sapiens, UniProt P35367); assay: Receptor binding assay, H1 (h); details: human recombinant (HEK-293 cells), compound A at 10 μM, [3H] pyrilamine (3 nM), 60 min./22° C., read-out: Inhibition rate of compound A for radioligand (%)
T5 construct: expressed in transfected cells; host or cells: HEK-293 cells
Protocol: as §1, §2, §3

NMDA receptor = assay: Receptor binding assay, NMDA; details: rat cerebral cortex, compound A at 10 μM, [3H] CGP 39653 (5 nM), 60 min./4° C.
Protocol: as §1, §2, §3

[2] = test system: α1 (non-selective) receptor; assay: Receptor binding assay, α1 (non-selective); details: rat cerebral cortex, compound A at 10 μM, [3H] prazosin (0.25 nM), 60 min./22° C
Protocol: as §1, §2, §3

D2 receptor = molecular target: T6, D2 receptor (Rattus norvegicus, UniProt P61169); assay: Receptor binding assay, D2; details: rat striatum, compound A at 10 μM, [3H] YM-09151-2 (0.1 nM), 60 min./22° C.
T6 construct: rat striatum; from tissue; host or cells: rat striatum
Protocol: as §1, §2, §3

[3] = molecular target: T7, sigma-2 receptors expressed in Jurkat cells (Homo sapiens, UniProt Q5BJF2); assay: Identification of sigma-2 receptor inhibition constant; type: binding; details: 25 nM [3H] DTG under the presence of 1 μM (+)-pentazocine, room temperature for 60 minutes, Cheng-Prusoff equation
T7 construct: In the sigma-2 receptors expressed in Jurkat cells; endogenous in cells; host or cells: Jurkat cells
Protocol: The sigma-2 receptor inhibition constant of the compound A (Ki value) was identified. The test was conducted by a method described below in accordance with Ganapathy, M. E. (1999).
DTG under the presence of 1 μM (+)-pentazocine. The reaction was conducted at room temperature for 60 minutes. The inhibition rate was calculated in the same manner as described in Test Example 1. The Ki value was identified in accordance with the Cheng-Prusoff equation by calculating IC50 based on nonlinear regression analysis.

[4] = test system: σ (non-selective) receptor; assay: Receptor binding assay, σ (non-selective); details: rat cerebral cortex, compound A at 10 μM, [3H] DTG (8 nM), 120 min./22° C.
Protocol: as §1, §2, §3

GABAB receptor = molecular target: T8, GABAB receptor (Rattus norvegicus, UniProt Q9Z0U4); assay: Receptor binding assay, GABAB; details: rat cerebral cortex, compound A at 10 μM, [3H] GABA (+40 μM isoguvacine) (10 nM), 10 min./22° C., read-out: Inhibition rate of compound A for radioligand (%)
T8 construct: rat cerebral cortex; from tissue; host or cells: rat cerebral cortex
Protocol: as §1, §2, §3

[5] = molecular target: T9, sigma-1 receptors expressed in Jurkat cells (Homo sapiens, UniProt Q99720); assay: Identification of sigma-1 receptor inhibition constant; type: binding; details: 15 nM [3H] (+)-pentazocine, 37° C. for 120 minutes, Cheng-Prusoff equation
T9 construct: In the sigma-1 receptors expressed in Jurkat cells; endogenous in cells; host or cells: Jurkat cells
Protocol: The sigma-1 receptor inhibition constant of the compound A (Ki value) was identified. The test was conducted by a method described below in accordance with Ganapathy, M. E. (1999).
(+)-pentazocine. The reaction was conducted at 37° C. for 120 minutes. The inhibition rate was calculated in the same manner as described in Test Example 1. The Ki value was identified in accordance with the Cheng-Prusoff equation by calculating IC50 based on nonlinear regression analysis.

BZD (central) receptor = assay: Receptor binding assay, BZD (central); details: rat cerebral cortex, compound A at 10 μM, [3H] flunitrazepam (0.4 nM), 60 min./4° C.
Protocol: as §1, §2, §3

[6] = test system: N (neuronal) (α-BGTX-insensitive) receptor; assay: Receptor binding assay, N (neuronal) (α-BGTX-insensitive); details: rat cerebral cortex, compound A at 10 μM, [3H] cytisine (1.5 nM), 75 min./4° C.
Protocol: as §1, §2, §3

TRH receptor = assay: Receptor binding assay, TRH; details: rat cerebral cortex, compound A at 10 μM, [3H] Me-TRH (2 nM), 6 h/4° C.
Protocol: as §1, §2, §3

M2 (h) receptor = molecular target: T10, M2 (h) receptor (Homo sapiens, UniProt P08172); assay: Receptor binding assay, M2 (h); details: human recombinant (CHO cells), compound A at 10 μM, [3H] AF-DX 384 (2 nM), 60 min./22° C.
T10 construct: expressed in transfected cells; host or cells: CHO cells
Protocol: as §1, §2, §3

D1 receptor = molecular target: T11, D1 receptor (Rattus norvegicus, UniProt P18901); assay: Receptor binding assay, D1; details: rat striatum, compound A at 10 μM, [3H] SCH 23390 (0.3 nM), 45 min./22° C.
T11 construct: rat striatum; from tissue; host or cells: rat striatum
Protocol: as §1, §2, §3

[7] = test system: α2 (non-selective) receptor; assay: Receptor binding assay, α2 (non-selective); details: rat cerebral cortex, compound A at 10 μM, [3H] RX 821002 (0.5 nM), 30 min./22° C.
Protocol: as §1, §2, §3

H2 receptor = molecular target: T12, H2 receptor (Cavia porcellus, UniProt P47747); assay: Receptor binding assay, H2; details: guinea-pig striatum, compound A at 10 μM, [3H] APT (0.1 nM), 150 min/22° C., read-out: Inhibition rate of compound A for radioligand (%)
T12 construct: guinea-pig striatum; from tissue; host or cells: guinea-pig striatum
Protocol: as §1, §2, §3

T4 sequence (P08482 whole entry): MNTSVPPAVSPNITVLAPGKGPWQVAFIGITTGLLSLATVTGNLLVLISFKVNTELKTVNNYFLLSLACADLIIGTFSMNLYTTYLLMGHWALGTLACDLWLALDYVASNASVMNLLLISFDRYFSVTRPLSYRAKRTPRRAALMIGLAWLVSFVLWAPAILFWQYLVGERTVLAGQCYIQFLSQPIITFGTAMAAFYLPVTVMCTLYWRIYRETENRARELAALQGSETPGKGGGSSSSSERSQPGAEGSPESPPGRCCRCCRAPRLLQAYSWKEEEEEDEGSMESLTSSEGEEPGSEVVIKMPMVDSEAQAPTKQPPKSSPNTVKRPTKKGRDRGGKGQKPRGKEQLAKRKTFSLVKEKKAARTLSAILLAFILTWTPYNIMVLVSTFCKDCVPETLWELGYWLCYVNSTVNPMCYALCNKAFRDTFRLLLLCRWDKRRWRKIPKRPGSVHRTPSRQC
T5 sequence (P35367 whole entry): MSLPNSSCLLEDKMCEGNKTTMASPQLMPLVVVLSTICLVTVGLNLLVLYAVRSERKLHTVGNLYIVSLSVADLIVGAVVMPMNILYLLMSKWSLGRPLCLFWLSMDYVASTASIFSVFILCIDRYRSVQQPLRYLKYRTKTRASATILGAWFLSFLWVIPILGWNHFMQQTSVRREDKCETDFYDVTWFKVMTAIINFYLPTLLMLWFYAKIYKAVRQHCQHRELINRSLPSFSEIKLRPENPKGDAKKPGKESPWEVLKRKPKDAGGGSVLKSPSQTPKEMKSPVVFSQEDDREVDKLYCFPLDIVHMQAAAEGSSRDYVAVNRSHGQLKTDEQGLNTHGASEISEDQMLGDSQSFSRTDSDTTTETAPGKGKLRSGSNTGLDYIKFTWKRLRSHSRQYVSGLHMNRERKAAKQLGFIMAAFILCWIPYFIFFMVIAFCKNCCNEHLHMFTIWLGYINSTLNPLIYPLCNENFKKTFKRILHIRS
T9 sequence (Q99720 whole entry): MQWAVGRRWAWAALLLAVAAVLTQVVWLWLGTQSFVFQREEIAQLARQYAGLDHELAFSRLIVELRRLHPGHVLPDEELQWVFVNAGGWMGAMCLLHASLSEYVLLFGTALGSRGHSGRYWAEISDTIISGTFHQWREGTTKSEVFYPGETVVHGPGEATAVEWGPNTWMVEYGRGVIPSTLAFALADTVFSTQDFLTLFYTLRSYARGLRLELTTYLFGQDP
T12 sequence (P47747 whole entry): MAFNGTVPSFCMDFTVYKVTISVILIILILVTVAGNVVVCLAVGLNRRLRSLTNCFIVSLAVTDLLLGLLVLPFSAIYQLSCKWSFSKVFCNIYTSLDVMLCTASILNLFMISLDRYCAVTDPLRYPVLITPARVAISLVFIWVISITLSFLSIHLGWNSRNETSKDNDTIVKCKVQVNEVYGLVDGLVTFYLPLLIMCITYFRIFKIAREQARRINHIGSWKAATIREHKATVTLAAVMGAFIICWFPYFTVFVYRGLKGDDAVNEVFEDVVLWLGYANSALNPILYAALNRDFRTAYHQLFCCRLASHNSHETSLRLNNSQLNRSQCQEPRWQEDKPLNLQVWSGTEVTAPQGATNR
T2 sequence (P50052 whole entry): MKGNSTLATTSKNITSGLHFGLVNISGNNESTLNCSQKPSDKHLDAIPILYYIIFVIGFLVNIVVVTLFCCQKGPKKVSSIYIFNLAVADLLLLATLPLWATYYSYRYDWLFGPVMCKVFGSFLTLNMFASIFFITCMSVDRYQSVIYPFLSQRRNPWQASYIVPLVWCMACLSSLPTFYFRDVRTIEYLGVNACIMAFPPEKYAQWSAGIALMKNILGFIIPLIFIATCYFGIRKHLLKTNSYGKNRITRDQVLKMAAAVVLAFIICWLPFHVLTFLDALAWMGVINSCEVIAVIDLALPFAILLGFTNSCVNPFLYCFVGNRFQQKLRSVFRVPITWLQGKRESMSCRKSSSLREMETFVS
T7 sequence (Q5BJF2 whole entry): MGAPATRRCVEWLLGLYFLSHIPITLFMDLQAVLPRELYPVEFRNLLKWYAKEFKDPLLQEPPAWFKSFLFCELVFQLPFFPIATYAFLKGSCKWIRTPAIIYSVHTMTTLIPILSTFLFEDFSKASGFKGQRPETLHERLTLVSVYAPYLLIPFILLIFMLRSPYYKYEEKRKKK
T1 sequence (Q8K4Z4 whole entry): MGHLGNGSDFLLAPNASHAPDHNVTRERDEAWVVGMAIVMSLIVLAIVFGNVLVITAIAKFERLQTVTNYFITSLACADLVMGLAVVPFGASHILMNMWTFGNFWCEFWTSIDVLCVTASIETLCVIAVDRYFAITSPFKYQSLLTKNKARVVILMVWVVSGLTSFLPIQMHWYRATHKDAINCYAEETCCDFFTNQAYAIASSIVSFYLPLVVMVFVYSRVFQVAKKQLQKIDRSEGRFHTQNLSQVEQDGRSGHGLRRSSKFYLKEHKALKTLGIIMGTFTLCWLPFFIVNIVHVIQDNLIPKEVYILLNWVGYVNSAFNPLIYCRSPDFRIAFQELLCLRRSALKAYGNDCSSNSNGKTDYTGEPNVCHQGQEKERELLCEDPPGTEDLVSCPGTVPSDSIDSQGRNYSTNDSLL
T10 sequence (P08172 whole entry): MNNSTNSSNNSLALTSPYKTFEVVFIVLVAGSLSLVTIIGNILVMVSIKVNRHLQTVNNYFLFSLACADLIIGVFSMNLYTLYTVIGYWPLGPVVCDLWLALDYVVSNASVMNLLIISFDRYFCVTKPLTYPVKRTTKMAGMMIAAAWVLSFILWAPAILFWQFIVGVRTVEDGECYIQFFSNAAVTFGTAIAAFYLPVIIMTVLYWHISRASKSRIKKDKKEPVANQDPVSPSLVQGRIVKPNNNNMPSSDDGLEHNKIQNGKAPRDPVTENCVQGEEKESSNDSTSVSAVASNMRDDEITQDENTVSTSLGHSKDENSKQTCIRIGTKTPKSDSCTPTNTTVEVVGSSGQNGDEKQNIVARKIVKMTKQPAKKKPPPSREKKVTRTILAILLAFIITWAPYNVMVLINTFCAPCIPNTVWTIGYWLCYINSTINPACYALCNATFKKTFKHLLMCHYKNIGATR
T8 sequence (Q9Z0U4 20-960): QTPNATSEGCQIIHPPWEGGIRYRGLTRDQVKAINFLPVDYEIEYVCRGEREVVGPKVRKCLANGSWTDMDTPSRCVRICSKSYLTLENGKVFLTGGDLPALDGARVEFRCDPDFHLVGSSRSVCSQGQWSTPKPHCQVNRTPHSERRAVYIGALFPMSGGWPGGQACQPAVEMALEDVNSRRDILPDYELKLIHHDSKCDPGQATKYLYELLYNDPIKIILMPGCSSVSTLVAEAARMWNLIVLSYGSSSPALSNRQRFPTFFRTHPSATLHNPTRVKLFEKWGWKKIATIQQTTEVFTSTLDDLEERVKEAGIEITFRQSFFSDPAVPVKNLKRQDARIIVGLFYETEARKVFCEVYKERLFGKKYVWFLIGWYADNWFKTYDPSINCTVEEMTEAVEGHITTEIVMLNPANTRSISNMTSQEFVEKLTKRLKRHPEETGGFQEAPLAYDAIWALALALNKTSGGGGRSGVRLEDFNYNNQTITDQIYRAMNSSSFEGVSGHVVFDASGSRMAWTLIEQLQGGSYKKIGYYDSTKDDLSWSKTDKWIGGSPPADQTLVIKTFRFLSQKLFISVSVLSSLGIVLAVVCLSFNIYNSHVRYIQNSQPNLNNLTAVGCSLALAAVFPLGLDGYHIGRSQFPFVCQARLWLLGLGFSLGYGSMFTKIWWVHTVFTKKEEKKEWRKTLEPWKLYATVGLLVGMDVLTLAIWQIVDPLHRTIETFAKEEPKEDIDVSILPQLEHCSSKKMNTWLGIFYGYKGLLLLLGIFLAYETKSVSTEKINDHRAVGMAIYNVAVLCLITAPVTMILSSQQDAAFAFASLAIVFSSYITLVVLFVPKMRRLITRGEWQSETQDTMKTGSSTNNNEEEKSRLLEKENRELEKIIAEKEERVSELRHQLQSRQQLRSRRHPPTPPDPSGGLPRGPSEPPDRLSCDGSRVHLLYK
T8 sequence (O88871 41-940 partner): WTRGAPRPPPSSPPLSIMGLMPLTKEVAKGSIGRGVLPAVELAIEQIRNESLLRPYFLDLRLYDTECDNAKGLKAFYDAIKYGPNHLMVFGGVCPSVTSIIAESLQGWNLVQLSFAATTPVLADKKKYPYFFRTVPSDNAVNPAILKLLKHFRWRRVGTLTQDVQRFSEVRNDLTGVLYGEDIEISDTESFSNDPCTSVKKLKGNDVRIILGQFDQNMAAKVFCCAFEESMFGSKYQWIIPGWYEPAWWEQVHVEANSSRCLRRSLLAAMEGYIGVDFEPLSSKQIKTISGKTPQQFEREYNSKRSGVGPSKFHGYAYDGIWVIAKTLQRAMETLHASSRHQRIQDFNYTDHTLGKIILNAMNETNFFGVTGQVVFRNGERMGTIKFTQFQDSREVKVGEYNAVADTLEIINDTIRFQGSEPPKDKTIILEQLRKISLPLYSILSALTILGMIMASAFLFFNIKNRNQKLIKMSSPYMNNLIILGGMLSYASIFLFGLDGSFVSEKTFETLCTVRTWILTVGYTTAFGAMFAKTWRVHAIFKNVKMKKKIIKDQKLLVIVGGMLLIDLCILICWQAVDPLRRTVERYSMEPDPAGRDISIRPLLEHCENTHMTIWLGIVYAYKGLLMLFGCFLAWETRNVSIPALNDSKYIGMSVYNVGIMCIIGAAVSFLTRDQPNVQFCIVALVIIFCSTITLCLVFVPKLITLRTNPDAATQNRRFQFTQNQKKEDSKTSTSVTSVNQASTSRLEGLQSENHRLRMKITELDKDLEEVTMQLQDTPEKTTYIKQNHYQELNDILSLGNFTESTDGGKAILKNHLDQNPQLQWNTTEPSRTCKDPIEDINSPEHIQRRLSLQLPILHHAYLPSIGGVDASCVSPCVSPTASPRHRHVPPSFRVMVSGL

## O=C(O)/C=C\C(=O)O.OC1CN(CCCOCCc2ccc3sccc3c2)C1 [compound A, 1-(3-(2-(1-benzothiophene-5-yl)ethoxy)propyl)azetidine-3-ol maleate]
β2 receptor
  inhibition at 10 µM: 5%
GABAA receptor
  Inhibition rate of compound A for radioligand (%): −8%
AT2 (h) receptor
  inhibition at 10 µM: -13%
TH receptor
  Inhibition rate of compound A for radioligand (%): −5%
AT1 (h) receptor
  inhibition at 10 µM: -2%
M1 receptor
  inhibition at 10 µM: 43%
[1]
  Inhibition rate of compound A for radioligand (%): 2%
H1 (h) receptor
  inhibition at 10 µM: -15%
NMDA receptor
  Inhibition rate of compound A for radioligand (%): 16%
[2]
  Inhibition rate of compound A for radioligand (%): 36%
D2 receptor
  Inhibition rate of compound A for radioligand (%): 21%
[3]
  Ki: 160 nM
[4]
  Inhibition rate of compound A for radioligand (%): 99%
GABAB receptor
  inhibition at 10 µM: 4%
[5]
  Ki: 16 nM
BZD (central) receptor
  Inhibition rate of compound A for radioligand (%): 25%
[6]
  Inhibition rate of compound A for radioligand (%): 12%
TRH receptor
  Inhibition rate of compound A for radioligand (%): 1%
M2 (h) receptor
  Inhibition rate of compound A for radioligand (%): 19%
D1 receptor
  Inhibition rate of compound A for radioligand (%): 1%
[7]
  Inhibition rate of compound A for radioligand (%): 40%
H2 receptor
  inhibition at 10 µM: 72%
